# Molecular target: T1, Enoyl-ACP reductase (Plasmodium falciparum, UniProt Q9BJJ9)
# T1 sequence (Q9BJJ9 whole entry): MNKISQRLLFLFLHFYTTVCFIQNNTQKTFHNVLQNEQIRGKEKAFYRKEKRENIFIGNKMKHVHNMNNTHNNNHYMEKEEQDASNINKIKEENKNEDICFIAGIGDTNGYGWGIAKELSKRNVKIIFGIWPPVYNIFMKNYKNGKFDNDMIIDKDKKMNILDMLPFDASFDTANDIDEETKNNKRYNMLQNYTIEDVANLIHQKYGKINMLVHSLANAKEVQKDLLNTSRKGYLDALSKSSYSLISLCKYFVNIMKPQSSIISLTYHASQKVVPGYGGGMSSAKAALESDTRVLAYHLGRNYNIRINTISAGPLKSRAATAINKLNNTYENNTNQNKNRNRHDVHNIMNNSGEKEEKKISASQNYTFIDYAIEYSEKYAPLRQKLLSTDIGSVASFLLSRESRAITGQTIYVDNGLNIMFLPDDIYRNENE
# Test: PfENR Enzymatic Inhibition Assay
# Details: pH 7.9; 25 °C
# Experimental: PfENR inhibition assays were carried out on a Cary 100 Bio Spectrophotometer or POLARstar Optima by monitoring oxidation of NADH at 340 nm. The IC50 was determined from a dose-response plot of enzyme fractional activity as a function of inhibitor concentration.
row,SMILES,IC50 [µM]
1,Oc1cc(Cl)ccc1Oc1ccc(Cl)cc1Cl,0.073
2,"O=C(O)c1ccc(Oc2ccc(Cl)cc2Cl)c(O)c1 [4-(2,4-dichlorophenoxy)-3-hydroxybenzoic acid]",> 100
3,"Oc1cc(-c2nn[nH]n2)ccc1Oc1ccc(Cl)cc1Cl [2-(2,4-dichlorophenoxy)-5-(2H-1,2,3,4-tetrazol-5-yl)phenol]",> 100
